Data: ChEMBL document CHEMBL5370543, “Discovery of 6-aryl-2-(3,4,5-trimethoxyphenyl)thiazole[3,2-b][1,2,4]triazoles as potent tubulin polymerization inhibitors” (Eur J Med Chem, 2023)

What was measured:
[1] = tested on: SGC-7901; experiment: Antiproliferative activity against human SGC-7901 cells assessed as cell growth inhibition incubated for 72 hrs by MTT assay; assay type: functional, cell-based; conditions: SGC-7901, 72 h
[2] = tested on: HT-1080; experiment: Antiproliferative activity against human HT-1080 cells assessed as cell growth inhibition incubated for 72 hrs by MTT assay; assay type: functional, cell-based; conditions: HT-1080, 72 h
[3] = tested on: MCF7; experiment: Antiproliferative activity against human MCF7 cells assessed as cell growth inhibition incubated for 72 hrs by MTT assay; assay type: functional, cell-based; conditions: MCF7, 72 h
[4] = tested on: SGC-7901; experiment: Induction of cell cycle arrest in human SGC-7901 cells assessed as accumulation at sub-G1 phase at 2 times IC50 incubated for 12 hrs by PI/RNase staining based flow cytometry (reference value: 6 %); assay type: functional
[5] = tested on: SGC-7901; experiment: Induction of cell cycle arrest in human SGC-7901 cells assessed as accumulation at G2/M phase at 2 times IC50 incubated for 72 hrs by PI/RNase staining based flow cytometry (reference value: 9 %); assay type: functional
[6] = tested on: SGC-7901; experiment: Induction of cell cycle arrest in human SGC-7901 cells assessed as accumulation at G2/M phase at 2 times IC50 incubated for 48 hrs by PI/RNase staining based flow cytometry (reference value: 9 %); assay type: functional
[7] = tested on: SGC-7901; experiment: Induction of cell cycle arrest in human SGC-7901 cells assessed as accumulation at S phase at 2 times IC50 incubated for 6 hrs by PI/RNase staining based flow cytometry (reference value: 44 %); assay type: functional
[8] = tested on: SGC-7901; experiment: Induction of cell cycle arrest in human SGC-7901 cells assessed as accumulation at S phase at 2 times IC50 incubated for 72 hrs by PI/RNase staining based flow cytometry (reference value: 44 %); assay type: functional
[9] = tested on: SGC-7901; experiment: Induction of cell cycle arrest in human SGC-7901 cells assessed as accumulation at G2/M phase at 2 times IC50 incubated for 12 hrs by PI/RNase staining based flow cytometry (reference value: 9 %); assay type: functional
[10] = tested on: SGC-7901; experiment: Induction of cell cycle arrest in human SGC-7901 cells assessed as accumulation at G0/G1 phase at 2 times IC50 incubated for 6 hrs by PI/RNase staining based flow cytometry (reference value: 41 %); assay type: functional
[11] = Cytotoxicity against HUVEC cells assessed as cell growth inhibition incubated for 72 hrs by MTT assay; assay type: toxicity, cell-based; conditions: human
[12] = tested on: SGC-7901; experiment: Induction of cell cycle arrest in human SGC-7901 cells assessed as accumulation at G0/G1 phase at 2 times IC50 incubated for 72 hrs by PI/RNase staining based flow cytometry (reference value: 41 %); assay type: functional
[13] = tested on: SGC-7901; experiment: Induction of cell cycle arrest in human SGC-7901 cells assessed as accumulation at sub-G1 phase at 2 times IC50 incubated for 72 hrs by PI/RNase staining based flow cytometry (reference value: 6 %); assay type: functional
[14] = tested on: SGC-7901; experiment: Induction of cell cycle arrest in human SGC-7901 cells assessed as accumulation at S phase at 2 times IC50 incubated for 12 hrs by PI/RNase staining based flow cytometry (reference value: 44 %); assay type: functional
[15] = tested on: SGC-7901; experiment: Induction of cell cycle arrest in human SGC-7901 cells assessed as accumulation at sub-G1 phase at 2 times IC50 incubated for 6 hrs by PI/RNase staining based flow cytometry (reference value: 6 %); assay type: functional
[16] = tested on: SGC-7901; experiment: Induction of cell cycle arrest in human SGC-7901 cells assessed as accumulation at G0/G1 phase at 2 times IC50 incubated for 12 hrs by PI/RNase staining based flow cytometry (reference value: 41 %); assay type: functional
[17] = tested on: SGC-7901; experiment: Induction of cell cycle arrest in human SGC-7901 cells assessed as accumulation at S phase at 2 times IC50 incubated for 48 hrs by PI/RNase staining based flow cytometry (reference value: 44 %); assay type: functional
[18] = tested on: SGC-7901; experiment: Induction of cell cycle arrest in human SGC-7901 cells assessed as accumulation at G0/G1 phase at 2 times IC50 incubated for 24 hrs by PI/RNase staining based flow cytometry (reference value: 41 %); assay type: functional
[19] = tested on: SGC-7901; experiment: Induction of cell cycle arrest in human SGC-7901 cells assessed as accumulation at sub-G1 phase at 2 times IC50 incubated for 48 hrs by PI/RNase staining based flow cytometry (reference value: 6 %); assay type: functional
[20] = tested on: SGC-7901; experiment: Induction of cell cycle arrest in human SGC-7901 cells assessed as accumulation at S phase at 2 times IC50 incubated for 24 hrs by PI/RNase staining based flow cytometry (reference value: 44 %); assay type: functional
[21] = tested on: SGC-7901; experiment: Induction of cell cycle arrest in human SGC-7901 cells assessed as accumulation at G2/M phase at 2 times IC50 incubated for 6 hrs by PI/RNase staining based flow cytometry (reference value: 9 %); assay type: functional
[22] = tested on: SGC-7901; experiment: Induction of cell cycle arrest in human SGC-7901 cells assessed as accumulation at G0/G1 phase at 2 times IC50 incubated for 48 hrs by PI/RNase staining based flow cytometry (reference value: 41 %); assay type: functional
[23] = tested on: SGC-7901; experiment: Induction of cell cycle arrest in human SGC-7901 cells assessed as accumulation at G2/M phase at 2 times IC50 incubated for 24 hrs by PI/RNase staining based flow cytometry (reference value: 9 %); assay type: functional
[24] = tested on: SGC-7901; experiment: Induction of cell cycle arrest in human SGC-7901 cells assessed as accumulation at sub-G1 phase at 2 times IC50 incubated for 24 hrs by PI/RNase staining based flow cytometry (reference value: 6 %); assay type: functional
[25] = Selectivity index, ratio of IC50 for HUVEC cells to IC50 for human SGC-7901 cells; assay type: functional
[26] = target: Tubulin (Homo sapiens) (UniProt P68371+Q9H4B7+P0DPH7+P68366+Q13509+Q71U36+P04350+Q3ZCM7+P07437+P68363+Q9BQE3+Q6PEY2+Q13885+Q9BVA1+Q9BUF5); experiment: Binding affinity to tubulin (unknown origin) at colchicine binding site assessed as tubulin-colchicine complex competition rate at 1.25 uM preincubated for 45 mins followed by colchicine addition by fluorescence based assay relative to control; assay type: protein-complex assay
[27] = tested on: 4T1; experiment: Antitumor activity against mouse 4T1 cells allografted in Balb/c mouse assessed as tumor weight at 5 mg/kg, iv administered every other day measured after 12 days (reference value: 448 mg); assay type: functional; conditions: time 12 day

SMILES: COc1cc(-c2nc3scc(-c4ccc(Cl)cc4)n3n2)cc(OC)c1OC
- IC50 [1]: 2.19 µM
- IC50 [2]: 3.75 µM
- IC50 [3]: 4.64 µM

SMILES: COc1cc(-c2nc3scc(-c4cccc(Br)c4)n3n2)cc(OC)c1OC
- IC50 [1]: 0.62 µM
- IC50 [2]: 1.71 µM
- IC50 [3]: 3.46 µM

SMILES: COc1cc(-c2nc3scc(-c4cccc(F)c4)n3n2)cc(OC)c1OC
- IC50 [1]: 0.78 µM
- IC50 [2]: 2.74 µM
- IC50 [3]: 4.86 µM

SMILES: COc1cc(-c2nc3scc(-c4cc(F)cc(F)c4)n3n2)cc(OC)c1OC
- IC50 [1]: 0.61 µM
- IC50 [2]: 2.31 µM
- IC50 [3]: 3.86 µM

SMILES: COc1ccc(-c2csc3nc(-c4cc(OC)c(OC)c(OC)c4)nn23)cc1
- IC50 [1]: 6.19 µM
- IC50 [2]: 3.76 µM
- IC50 [3]: 8.28 µM

SMILES: COc1cc(-c2nc3scc(-c4cccc(Cl)c4)n3n2)cc(OC)c1OC
- IC50 [1]: 0.43 µM
- IC50 [2]: 1.53 µM
- IC50 [3]: 3.09 µM

SMILES: COc1cc(-c2nc3scc(-c4ccccc4Br)n3n2)cc(OC)c1OC
- IC50 [1]: 6.41 µM
- IC50 [2]: 1.36 µM
- IC50 [3]: 5.26 µM

SMILES: COc1cc(-c2nc3scc(-c4cccc(N)c4)n3n2)cc(OC)c1OC
- IC50 [1]: 0.82 µM
- IC50 [2]: 2.13 µM
- IC50 [3]: 3.61 µM

SMILES: COc1cc2c(c(OC)c1OC)-c1ccc(OC)c(=O)cc1[C@@H](NC(C)=O)CC2 [COLCHICINE]
- Activity [4]: 12%
- Activity [5]: 50%
- Activity [6]: 72%
- IC50 [1]: 0.11 µM
- Activity [7]: 42%
- Activity [8]: 8%
- Activity [9]: 52%
- Activity [10]: 33%
- IC50 at 72 h [11]: 0.21 µM
- Activity [12]: 1%
- Activity [13]: 41%
- IC50 [2]: 0.073 µM
- IC50 [3]: 0.068 µM
- Activity [14]: 16%
- Activity [15]: 9%
- Activity [16]: 20%
- Activity [17]: 12%
- Activity [18]: 10%
- Activity [19]: 16%
- Activity [20]: 12%
- Activity [21]: 16%
- Activity [22]: 0%
- Activity [23]: 64%
- Activity [24]: 14%
- Ratio IC50 [25]: 1.91

SMILES: COc1ccccc1-c1csc2nc(-c3cc(OC)c(OC)c(OC)c3)nn12
- IC50 [1]: 7.25 µM
- IC50 [2]: 7.55 µM
- IC50 [3]: 4.99 µM

SMILES: COc1cc(-c2nc3scc(-c4ccc(Br)cc4)n3n2)cc(OC)c1OC
- IC50 [1]: 5.82 µM
- IC50 [2]: 7.49 µM
- IC50 [3]: 6.88 µM

SMILES: COc1cc(-c2nc3scc(-c4ccc([N+](=O)[O-])cc4)n3n2)cc(OC)c1OC
- IC50 [1]: 3.03 µM
- IC50 [2]: 4.3 µM
- IC50 [3]: > 30 µM

SMILES: COc1cc(-c2nc3scc(-c4ccc(C)cc4)n3n2)cc(OC)c1OC
- IC50 [1]: 3.66 µM
- IC50 [2]: 1.51 µM
- IC50 [3]: 2.58 µM

SMILES: COc1ccc(/C=C\c2cc(OC)c(OC)c(OC)c2)cc1O
- Activity [26]: 23.8%

SMILES: COc1cc(-c2nc3scc(-c4ccc(F)c(F)c4)n3n2)cc(OC)c1OC
- IC50 [1]: 8.11 µM
- IC50 [2]: 2.85 µM
- IC50 [3]: 4.97 µM

SMILES: COc1cc(-c2nc3scc(-c4ccc(F)cc4)n3n2)cc(OC)c1OC
- IC50 [1]: > 30 µM
- IC50 [2]: > 30 µM
- IC50 [3]: > 30 µM

SMILES: COc1cc(-c2nc3scc(-c4cc(C)cc(C)c4)n3n2)cc(OC)c1OC
- IC50 [1]: 0.55 µM
- IC50 [2]: 1.42 µM
- IC50 [3]: 5.41 µM

SMILES: COc1ccc(-c2csc3nc(-c4cc(OC)c(OC)c(OC)c4)nn23)cc1F
- IC50 [1]: 10 µM
- IC50 [2]: 3.79 µM
- IC50 [3]: 5.08 µM

SMILES: COc1cc(-c2nc3scc(-c4ccccc4F)n3n2)cc(OC)c1OC
- IC50 [1]: 7.3 µM
- IC50 [2]: 1.65 µM
- IC50 [3]: 5.89 µM

SMILES: COc1cc(-c2nc3scc(-c4ccc(C(F)(F)F)cc4)n3n2)cc(OC)c1OC
- IC50 [1]: 4.09 µM
- IC50 [2]: 2.91 µM
- IC50 [3]: 12.2 µM

SMILES: Nc1ccn([C@@H]2O[C@H](CO)[C@@H](O)C2(F)F)c(=O)n1 [GEMCITABINE]
- Activity [27]: 17.02 mg

SMILES: COc1cc(-c2nc3scc(-c4ccccc4)n3n2)cc(OC)c1OC
- IC50 [1]: 0.88 µM
- IC50 [2]: 3.64 µM
- IC50 [3]: 4.38 µM

SMILES: COc1cccc(-c2csc3nc(-c4cc(OC)c(OC)c(OC)c4)nn23)c1
- IC50 [1]: 0.94 µM
- IC50 [2]: 2.18 µM
- IC50 [3]: 4.94 µM

SMILES: COc1ccc(-c2csc3nc(-c4cc(OC)c(OC)c(OC)c4)nn23)cc1OC
- IC50 [1]: 3.69 µM
- IC50 [2]: 11.7 µM
- IC50 [3]: 5.88 µM

SMILES: COc1cc(-c2nc3scc(-c4cccc([N+](=O)[O-])c4)n3n2)cc(OC)c1OC
- IC50 [1]: 0.75 µM
- IC50 [2]: 1.5 µM
- IC50 [3]: 3.13 µM

SMILES: COc1cc(-c2nc3scc(-c4ccccc4Cl)n3n2)cc(OC)c1OC
- IC50 [1]: 4.47 µM
- IC50 [2]: 3.38 µM
- IC50 [3]: 7.48 µM
